Results on three compounds are retold here after patent US20240108580A1, “DECOQUINATE LIPOSOME, PREPARATION METHOD THEREFOR AND USE THEREOF” (CAS LAMVAC (GUANGZHOU) BIOMEDICAL TECHNOLOGY CO.,LTD., priority 2019, published 2024).

In one data set the test system is P. falciparum 3D7. The data set can be described thus: In-vitro inhibition potency against Plasmodium falciparum, 72 hours, nucleic acid dye. The data set is classed as cell-based. The method, then:
(§1) The volume was filled up to 1 L with ultrapure water, the pH adjusted to 7.2, subjected to sterilized filtration by using a 0.22 μm filtration membrane, and stored at 4° C. to obtain a complete culture medium; the incomplete medium was composed of 10.43 g of 1640 dry powder (GIBCO, 31800022), 5.96 g of Hepes, 2 g of sodium bicarbonate, 0.292 g of L-glutamine, 3.96 g of glucose, […] of hypoxanthine and 2.5 mg of gentamicin, prepared by the same method as for the complete culture medium. • (2) Drugs and formulations: pure decoquinate was dissolved in DMSO as a stock solution, chloroquine was dissolved in PBS, and artemisinin was dissolved in DMSO and then diluted with PBS. […] Before the experiment, all the above dissolved drug solutions were then diluted to series of 10 gradient concentrations with the incomplete medium. • (3) Culture and assay method: Plasmodium falciparum was cultured in the complete culture medium, and human red blood cells (RBC) were preserved in the incomplete culture medium. […] The culture was incubated at 37° C. in 5% CO2 for 72 hours, then nucleic acid dye was added, and the […] measured in a microplate reader. The half-maximal inhibitory concentration (IC50) of drugs was calculated with Graph Pad software, that is, the concentration when the inhibition rate of antimalarial drugs to P. falciparum reached 50% was calculated.

The subject of the next data set is P. falciparum Dd2. The data set is described as above. It counts as cell-based. As to the method:
as §1

For data set [1] the following is noted: cited from earlier work.
Setting [2] is: 3D7, chloroquine-sensitive strain, liposome values are decoquinate concentrations, read-out: IC50 P. falciparum 3d7 Mean ± S.D.
[3] abbreviates: DD2, multidrug-resistant (including chloroquine) strain, liposome values are decoquinate concentrations, read-out: IC50 P. falciparum Dd2 Mean ± S.D.

Where two headings read alike, the source gives them in different places.

One may read the IC50 as the concentration at which inhibition is half-maximal. For `C[C@@H]1CC[C@H]2[C@@H](C)C(=O)O[C@@H]3O[C@@]4(C)CC[C@@H]1[C@]32OO4` [Artemisinin, artemisinin], the IC50 with P. falciparum 3D7 (setting [2]) came to 16.4 ± 5.8 nM; in the data set on P. falciparum Dd2 (setting [3]), 18.5 ± 0.5 nM.

In the case of `CCN(CC)CCCC(C)Nc1ccnc2cc(Cl)ccc12` (centres unmarked) [Chloroquine, chloroquine], the IC50 amounted to 23.75 ± 0.06 nM with P. falciparum 3D7 (3D7, read-out: IC50 P. falciparum 3d7 Mean ± S.D.) and 185 ± 16.2 nM in the data set with P. falciparum Dd2 (DD2, read-out: IC50 P. falciparum Dd2 Mean ± S.D.).

For `CCCCCCCCCCOc1cc2c(O)c(C(=O)OCC)cnc2cc1OCC` [Pure DQ, ethyl 6-decyloxy-7-ethoxy-4-hydroxyquinoline-3-carboxylate], the IC50 in the data set with P. falciparum 3D7 (setting [2]) came to 1.63 ± 0.13 nM; in the data set with P. falciparum Dd2 (setting [3]), 1.57 ± 0.49 nM. Further, the Solubility in ethanol entry in data set [1] (ethanol) is “slightly soluble”. The Solubility in water result in data set [1] (water) is given as “practically insoluble”.
